Source: patent US20090176696A1, “Methods And Compositions For Modulating An Immune Response” (priority 2006, published 2009)

Columns and labels:
[1] = system: KLH-specific T cell responses; experiment: Adoptive transfer of TCT-treated DCs; ex vivo lymph node T cell responses; assay type: in vivo, BALB/c mice
Protocol: Bone marrow-derived DCs from BALB/c mice were cultured in 2% heat inactivated normal mouse sera and 40 ng/ml recombinant GM-CSF for 12 days. DCs were harvested and cultured O/N at a concentration of 1×10^6 cells/ml. DCs were then incubated with KLH (20 μg/ml) alone, KLH (20 μg/ml) and TCT (10 μg/ml), KLH (20 μg/ml) plus Pam-3Csk (TLR2 agonist; 500 ng/ml), or with KLH (20 μg/ml) and TCT (10 μg/ml) and Pam-3Csk (500 ng/ml). After 2 hours incubation, cells were washed and injected sub-cutaneously (s.c.) into the flank of BALB/c mice (1×10^5 cells/mouse). T cell responses were assessed 14 days later from pooled local inguinal lymph node cells stimulated with antigen ex-vivo.
Lymph node cells from each treatment group were pooled and cultured in the presence of KLH (2, 10 and 50 μg/ml) or PMA/CD3 or medium, as positive and negative controls respectively. Supernatants were collected 72 h later for cytokine analysis (IFN-γ, IL-10, IL-4 and IL-5 were evaluated by specific ELISA FIG. 12). Fresh medium was added to the wells and cells were incubated overnight. At day 4, 2 μCi of ^3H thymidine was added to each well. Plates were incubated for a further 6 hours, after which cells and ^3H incorporation was determined (FIG. 12).

[2] = system: Graft-versus-host disease (GVHD); experiment: Parent-to-F1 hybrid graft-versus-host disease (GVHD) model; assay type: in vivo, BALB/c×C57Bl/6 F1 hybrid mice; conditions: TCT 10 μg/mouse s.c. footpad 2 hours prior to induction; day 7
From the text: Graft-versus-host disease (GVHD) is a major life-threatening complication of bone marrow transplantation, where T cells from the donor graft attack host cells leading to a condition that is only treatable using potent immunosuppressive drugs. It is possible to examine the potential of therapies for the prevention or treatment of GVHD in humans by testing their efficacy using a simple GVHD model in mice. The parent-to-F1 hybrid GVHD murine model involves the transfer of parental lymphocytes into non-conditioned F1 hybrid mice. Using this strain combination the host T cells cannot actively resist the donor cells.
GVHD was induced by transfer of 0.5×10^7 spleen cells from donor C57BL/6 mice into the footpads of BALB/c×C57Bl/6 F1 hybrid mice. Recipient mice were injected s.c into the footpad with PBS or TCT (10 μg/mouse) 2 hours prior to induction of GVHD. After 7 days, the popliteal lymph nodes were removed, weighed and cell numbers were recorded.

[3] = system: cultured hamster respiratory epithelia; conditions: B. pertussis TCT; cited from earlier work
[4] = biological target: T1, human NOD1 (Homo sapiens, UniProt Q9Y239); conditions: cited from earlier work
T1 sequence (Q9Y239 1-953): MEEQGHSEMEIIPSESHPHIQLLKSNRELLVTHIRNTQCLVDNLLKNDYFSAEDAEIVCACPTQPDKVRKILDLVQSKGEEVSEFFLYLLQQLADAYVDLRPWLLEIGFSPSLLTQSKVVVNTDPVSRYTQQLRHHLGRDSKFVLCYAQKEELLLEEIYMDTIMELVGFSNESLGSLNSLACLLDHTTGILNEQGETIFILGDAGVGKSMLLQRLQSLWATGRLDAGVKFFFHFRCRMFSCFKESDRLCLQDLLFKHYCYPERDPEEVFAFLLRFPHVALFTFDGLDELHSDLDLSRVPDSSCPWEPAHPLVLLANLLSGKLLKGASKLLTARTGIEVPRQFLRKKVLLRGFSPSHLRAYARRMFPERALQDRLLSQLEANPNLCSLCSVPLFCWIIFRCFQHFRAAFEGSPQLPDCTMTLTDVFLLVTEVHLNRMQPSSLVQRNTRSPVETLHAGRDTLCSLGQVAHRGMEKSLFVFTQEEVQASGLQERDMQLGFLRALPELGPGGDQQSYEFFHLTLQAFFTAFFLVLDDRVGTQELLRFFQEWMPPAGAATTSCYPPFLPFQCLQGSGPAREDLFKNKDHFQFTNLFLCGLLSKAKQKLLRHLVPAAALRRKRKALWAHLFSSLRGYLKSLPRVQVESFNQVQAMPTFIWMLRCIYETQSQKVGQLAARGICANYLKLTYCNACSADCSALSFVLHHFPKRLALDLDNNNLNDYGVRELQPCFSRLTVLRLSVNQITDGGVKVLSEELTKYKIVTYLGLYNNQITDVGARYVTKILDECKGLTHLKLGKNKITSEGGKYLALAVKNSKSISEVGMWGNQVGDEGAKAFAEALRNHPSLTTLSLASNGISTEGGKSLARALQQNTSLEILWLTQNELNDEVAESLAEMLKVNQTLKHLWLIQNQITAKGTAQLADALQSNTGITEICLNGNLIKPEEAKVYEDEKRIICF

[5] = system: KLH-specific T cell and antibody responses; experiment: TCT injection 6 hours before immunisation with KLH and E. coli heat labile enterotoxin (LT); ex vivo lymph node responses and antibody titres; assay type: in vivo, BALB/c mice
Protocol: Groups of 5 BALB/c mice were injected subcutaneously into the flank with PBS or TCT (10 μg/mouse) and then immunised with KLH (20 μg/mouse) or KLH with E. coli heat labile enterotoxin (LT) (100 ng/mouse) 6 hours later. The T cell response was assessed 14 days later from local inguinal lymph node cells stimulated with antigen ex vivo.
Lymph node (FIG. 10) cell suspensions were cultured in the presence of various concentrations of KLH (2, 10, 50 μg/ml) and PMA/CD3 or medium were used as positive and negative controls respectively. Supernatants were collected 72 hours later. Concentrations of IFN-gamma, IL-10, IL-4 and IL-5 in supernatants were evaluated by ELISA (FIG. 10). KLH-specific antibody titres were also determined by ELISA (FIG. 11). Results are the mean responses (±SD) for 5 mice assessed individually in triplicate.

[6] = DCs treated with KLH and Pam-3Csk, also treated with TCT
[7] = KLH treated DCs also treated with TCT
[8] = TCT 10 μg/mouse 6 hours before KLH and LT
[9] = TCT 10 μg/mouse 6 hours before KLH with LT

**Q.** For CC(=O)NC1C(OC2C3COC(O3)C(NC(C)=O)C2OC(C)C(=O)NC(C)C(=O)NC(CCC(=O)NC(CCCC(N)C(=O)NC(C)C(=O)O)C(=O)O)C(=O)O)OC(CO)C(O)C1O (stereo not shown) [TCT, N-acetylglucosaminyl-1,6-anhydro-N-acetylmuramylalanyl-γ-glutamyldiaminopimelylalanine], which “antigen-specific IFN-gamma production, lymph node cells” value [1, 6] is on record?
**A.** The value was “completely abolished”.

**Q.** And the “antigen-specific IL-10 production, lymph node cells” value [1, 6]?
**A.** The value was “completely abolished”.

**Q.** And the “KLH-specific IFN-gamma production, lymph node cells” value ([1]; DCs treated with TCT and KLH)?
**A.** The value was “No KLH-specific IFN-gamma, IL-10 and IL-4 production was detected”.

**Q.** What about the “KLH-specific proliferation by lymph node cells” value ([1]; DCs treated with TCT and Pam-3Csk with KLH vs Pam-3Csk with KLH) of the same molecule?
**A.** Its value is “profound impairment”.

**Q.** And the “antigen-specific IL-4 production, lymph node cells” value [1, 7]?
**A.** Its value is “abolished”.

**Q.** What about the “antigen-specific IL-10 production, lymph node cells” value [1, 7] of the same molecule?
**A.** Its value is “abolished”.

**Q.** What about the “proliferation by lymph node cells” value ([1]; KLH treated DCs also treated with TCT vs KLH treated DCs alone) of the same molecule?
**A.** The value was “almost abolished”.

**Q.** What about the “Antigen-specific IL-5 production, LN cells” value ([1]; all treatment groups) of the same molecule?
**A.** Its value is “not above background concentrations”.

**Q.** And the “total cells counts in the lymph node of the recipient mice” value [2]?
**A.** Its value is “significantly reduced”.

**Q.** And the “weight of the lymph node of the recipient mice” value [2]?
**A.** The value was “significantly reduced”.

**Q.** What about the “ciliostasis and ciliated cell destruction” value [3] of the same molecule?
**A.** Its value is “causes ciliostasis, ciliated cell destruction”.

**Q.** What about the “NOD1 detection of TCT” value [4] of the same molecule?
**A.** Its value is “poorly detected”.

**Q.** What about the “antigen-specific IFN-gamma production by lymph node cells” value [5, 8] of the same molecule?
**A.** Its value is “significantly impaired”.

**Q.** What about the “antigen-specific IL-4 production by lymph node cells” value [5, 8] of the same molecule?
**A.** Its value is “significantly impaired”.

**Q.** And the “KLH-specific IL-5 production, lymph node cells” value [5, 9]?
**A.** Its value is “reduction”.

**Q.** And the “KLH-specific IL-10 production, lymph node cells” value [5, 9]?
**A.** The value was “reduction”.

**Q.** What about the “antigen-specific IgG1 titres” value ([5]; TCT 6 hours before LT and KLH) of the same molecule?
**A.** The value was “no effect”.

**Q.** And the “antigen-specific IgG2a titres” value ([5]; TCT 6 hours before LT and KLH)?
**A.** The value was “no effect”.

**Q.** What about the “total KLH-specific IgG production” value ([5]; TCT 6 hours before LT and KLH) of the same molecule?
**A.** The value was “no effect”.
